{
  "source": "paper PMC12197275",
  "about": "“Preclinical Pharmacokinetic Evaluation of Mithramycin and Mithramycin SA Tryptophan-Conjugated Analog” (Pharmaceutics, 2025)",
  "key": {"[1]": {"conditions": "cited from earlier work"}, "[2]": {"conditions": "male monkey n=1, high microdose cassette: MTM 13.18 µg/kg, MTMSA-Trp 4.19 µg/kg, IV infusion", "description": "Two separate cassette dosing PK studies were conducted using male cynomolgus monkeys. […] The blood samples were processed and stored as described above.\n(§1) All samples were processed and analyzed by LC-MS/MS using a bioanalytical method validated according to the FDA’s Bioanalytical Guidance, essentially as described by Eckenrode et al. with some modifications [15]. […] Plasma samples above the calibration curve range were diluted, along with quality control (QC) samples, and values were accepted when the interpolated concentrations were within 15% of the nominal values. The expected % recovery for both compounds was >90% [15, 16]. Analyte separation and detection were performed on a Sciex Exion HPLC system equipped with a C18 analytical column (Phenomenex Synergi 4 µm Fusion-RP 80A; 50 mm × 2 mm with a guard column) and coupled to a hybrid triple-quadrupole/linear ion trap mass spectrometer (Sciex QTrap 6500+ or 7500+, Framingham, MA, USA). A 0.6 mL/min gradient of 0.005% formic acid in water and 0.005% formic acid in acetonitrile was used to elute the analytes within a 5 min time window. […] The internal standard was the MTM oxime–tryptophan [5]. The instruments were controlled and the data were integrated and processed using Sciex OS software version 3.3.1.43."}, "[3]": {"parameters": "method as in doi:10.1158/1535-7163.TARG-23-B150", "conditions": "across different multi-day dosing schedules; cited from earlier work"}, "[4]": {"experiment": "Stability of dosing solutions", "conditions": "[…]; 5% Solutol HS-15/95% PBS pH 8)"}, "[5]": {"experiment": "Plasma PK in male athymic nude mice, IV bolus 2 mg/kg (Study 1)", "conditions": "male mouse, 2 mg/kg IV bolus", "description": "Four separate PK studies were conducted using nu/nu mice. For studies using destructive sampling, the animals were anesthetized under isoflurane gas and samples were collected through intracardiac puncture in heparinized syringes. […] Blood samples were collected (n = 3 mice/time point) by cardiac puncture at 5 and 30 min and at 1.5, 3, and 6 h. […] Blood samples (n = 3 mice/time point) were collected by cardiac puncture at 5 min, 30 min, 2 h, and 5 h. […] Three groups (n = 9/group) of nu/nu mice were dosed at 0.3 mg/kg, 1 mg/kg, and 3 mg/kg. The mice at each dose level were randomized into three groups of three mice. The sampling time points for the three doses were as follows: 10 min, 20 min, 30 min, 45 min, 1 h, 1.5 h, 2 h, 2.5 h, and 3 h for the 0.3 mg/kg group; 5 min, 15 min, 30 min, 1 h, 2 h, 3 h, 4 h, 6 h, and 8 h for the 1 mg/kg group; and 5 min, 15 min, 30 min, 1 h, 2 h, 4 h, 6 h, 9 h, and 12 h for the 3 mg/kg group. […] Blood samples (n = 2 mice/time point) were collected by cardiac puncture at 10 min, 30 min, 1 h, 3 h, and 6 h. After collection, blood samples were immediately centrifuged at 4000 g for 2 min, and plasma samples were immediately collected and placed on dry ice, followed by storage at −80 °C until analysis.\nPlasma samples above the calibration curve range were diluted, along with quality control (QC) samples, and values were accepted when the interpolated concentrations were within 15% of the nominal values."}, "[6]": {"system": "plasma from Sprague Dawley rats", "experiment": "Plasma protein binding by rapid equilibrium dialysis, rat plasma", "description": "(§2) Protein binding was assessed in plasma derived from athymic nude (nu/nu) mice, Sprague Dawley rats, Cynomolgus monkeys, and humans. Plasma from athymic nude mice and Sprague Dawley rats was collected from animals housed locally. […] Plasma was collected by centrifuging the whole blood immediately upon collection, stored at 4 °C, and used within one week of storage for protein binding studies. The plasma was spiked with the compound to prepare 1, 3, and 10 µM final concentrations (0.1% DMSO (v/v)). Spiked plasma (100 µL) and PBS (350 µL) were placed in their respective chambers in the Pierce™ RED Device (12K MWCO; Linden Bioscience, Research Triangle Park, NC, USA) and incubated in a Talboys microplate shaker at 37 °C and 250 rpm for 4 h to achieve equilibrium. Post-dialysis samples were collected from the plasma and buffer chambers, matrix-matched with PBS and plasma, respectively, and analyzed by LC-MS/MS as detailed below. The experiments were performed in triplicate, and the unbound percentage was calculated based on the following equation [13]: fu=PBS chamber area ratio/Plasma chamber area ratio;Area ratio=analyte area/ISTD area\n(§3) All samples were processed and analyzed by LC-MS/MS using a bioanalytical method validated according to the FDA’s Bioanalytical Guidance, essentially as described by Eckenrode et al. with some modifications [15]. […] Plasma samples above the calibration curve range were diluted, along with quality control (QC) samples, and values were accepted when the interpolated concentrations were within 15% of the nominal values. […] Analyte separation and detection were performed on a Sciex Exion HPLC system equipped with a C18 analytical column (Phenomenex Synergi 4 µm Fusion-RP 80A; 50 mm × 2 mm with a guard column) and coupled to a hybrid triple-quadrupole/linear ion trap mass spectrometer (Sciex QTrap 6500+ or 7500+, Framingham, MA, USA). A 0.6 mL/min gradient of 0.005% formic acid in water and 0.005% formic acid in acetonitrile was used to elute the analytes within a 5 min time window. […] The internal standard was the MTM oxime–tryptophan [5]. […]"}, "[7]": {"system": "plasma from athymic nude (nu/nu) mice", "experiment": "Plasma protein binding by rapid equilibrium dialysis, mouse plasma", "conditions": "for Fraction Unbound (%): athymic nude mouse plasma", "description": "as §2\n(§4) All samples were processed and analyzed by LC-MS/MS using a bioanalytical method validated according to the FDA’s Bioanalytical Guidance, essentially as described by Eckenrode et al. with some modifications [15]. […] Plasma samples above the calibration curve range were diluted, along with quality control (QC) samples, and values were accepted when the interpolated concentrations were within 15% of the nominal values. […] Analyte separation and detection were performed on a Sciex Exion HPLC system equipped with a C18 analytical column (Phenomenex Synergi 4 µm Fusion-RP 80A; 50 mm × 2 mm with a guard column) and coupled to a hybrid triple-quadrupole/linear ion trap mass spectrometer (Sciex QTrap 6500+ or 7500+, Framingham, MA, USA). A 0.6 mL/min gradient of 0.005% formic acid in water and 0.005% formic acid in acetonitrile was used to elute the analytes within a 5 min time window. […] The internal standard was the MTM oxime–tryptophan [5]. The instruments were controlled and the data were integrated and processed using Sciex OS software version 3.3.1.43."}, "human plasma": {"system": "human plasma", "experiment": "Plasma protein binding by rapid equilibrium dialysis, human plasma", "description": "as §2, §4"}, "[8]": {"system": "plasma from Cynomolgus monkeys", "experiment": "Plasma protein binding by rapid equilibrium dialysis, monkey plasma", "conditions": "Cynomolgus macaque plasma", "description": "as §2, §3"}, "[9]": {"experiment": "Plasma PK in male Sprague Dawley rats, IV bolus 0.5 mg/kg (Study 2)", "conditions": "male rat, 0.5 mg/kg IV bolus", "description": "Rat PK studies were conducted using male Sprague Dawley rats (Study 2; Table 1). […] Blood samples were collected at three different time points by saphenous bleeding. The collection time points were at 5 min and 20 min and at 1, 3, 6, and 9 h. The blood samples were processed and stored as described above.\nas §1\n(§5) Only concentrations above the limit of quantification were used for NCA. The linear-up log-down trapezoidal integration method was used to estimate the area under the curve from time zero to the last measurable concentration–time point (AUClast). The terminal elimination rate constant (ke) was estimated by log-linear regression using the last three data points of the concentration–time profiles."}, "[10]": {"experiment": "Cassette microdose plasma PK in male athymic nude mice, 69 µg/kg (Study 5)", "description": "as §1, §5"}, "[11]": {"experiment": "Cassette microdose plasma PK in male Sprague Dawley rats, 28 µg/kg (Study 6)", "description": "as §1, §5"}, "[12]": {"conditions": "female athymic nude mice, 0.3 mg/kg IV bolus"}, "[13]": {"conditions": "female athymic nude mice, 1 mg/kg IV bolus"}, "[14]": {"conditions": "female athymic nude mice, 3 mg/kg IV bolus"}, "[15]": {"conditions": "female athymic nude mice, 5 mg/kg IV bolus"}, "[16]": {"conditions": "female athymic nude mice, 10 mg/kg IV bolus"}, "[17]": {"conditions": "male mouse, 69 µg/kg each, cassette IV bolus"}, "[18]": {"conditions": "male rat, 28 µg/kg each, cassette IV bolus"}},
  "note": "Read-outs that look alike come from different tables or passages of the source.",
  "data": [
    {"compound": "CO[C@H](C(=O)C(C)=O)[C@@H]1Cc2cc3cc(OC4C[C@@H](OC5C[C@@H](O)[C@H](O)C(C)O5)[C@H](O)C(C)O4)c(C)c(O)c3c(O)c2C(=O)[C@H]1OC1C[C@@H](OC2C[C@@H](OC3C[C@](C)(O)[C@H](O)C(C)O3)[C@@H](O)C(C)O2)[C@H](O)C(C)O1", "note": "(some centres unmarked) [MTM-SDK]", "values": [
      {"measurement": "systemic clearance", "setting": "[1]; in vivo", "value": "high systemic clearance"}
    ]},
    {"compound": "CO[C@H](C(O)C(C)=O)[C@@H]1Cc2cc3cc(OC4C[C@@H](OC5C[C@@H](O)[C@H](O)C(C)O5)[C@H](O)C(C)O4)c(C)c(O)c3c(O)c2C(=O)[C@H]1OC1C[C@@H](OC2C[C@@H](OC3C[C@](C)(O)[C@H](O)C(C)O3)[C@@H](O)C(C)O2)[C@H](O)C(C)O1", "note": "(some centres unmarked) [MTM-SK]", "values": [
      {"measurement": "systemic clearance", "setting": "[1]; in vivo", "value": "high systemic clearance"}
    ]},
    {"compound": "mithramycin SA-Trp [MTMSA-Trp]", "values": [
      {"measurement": "AUC0–inf", "setting": "[2]", "value": 181, "unit": "ng·h/mL"},
      {"measurement": "CL", "setting": "[2]", "value": 0.383, "unit": "mL/min/kg"},
      {"measurement": "Extrapolated AUC0–inf", "setting": "[2]", "value": 4.99, "unit": "%"},
      {"measurement": "Terminal t1/2", "setting": "[2]", "value": 0.78, "unit": "h"},
      {"measurement": "Vd", "setting": "[2]", "value": 0.026, "unit": "L/kg"},
      {"measurement": "estimated systemic clearance, average", "setting": "average over 1, 3, 5, and 10 mg/kg, female athymic nude mice", "value": "approximately 41 mL/h/kg"},
      {"measurement": "AUC0–inf", "setting": "[12]", "value": 4373, "unit": "ng·h/mL"},
      {"measurement": "CL", "setting": "[12]", "value": 1.15, "unit": "mL/min/kg"},
      {"measurement": "Extrapolated AUC0–inf", "setting": "[12]", "value": 0.4, "unit": "%"},
      {"measurement": "Vd", "setting": "[12]", "value": 0.045, "unit": "L/kg"},
      {"measurement": "t1/2", "setting": "[12]", "value": 0.5, "unit": "h"},
      {"measurement": "AUC0–inf", "setting": "[13]", "value": "24,419 ng/mL·h"},
      {"measurement": "CL", "setting": "[13]", "value": 0.683, "unit": "mL/min/kg"},
      {"measurement": "Extrapolated AUC0–inf", "setting": "[13]", "value": 0.2, "unit": "%"},
      {"measurement": "Vd", "setting": "[13]", "value": 0.075, "unit": "L/kg"},
      {"measurement": "t1/2", "setting": "[13]", "value": 1.3, "unit": "h"},
      {"measurement": "AUC0–inf", "setting": "[14]", "value": "91,778 ng/mL·h"},
      {"measurement": "CL", "setting": "[14]", "value": 0.55, "unit": "mL/min/kg"},
      {"measurement": "Extrapolated AUC0–inf", "setting": "[14]", "value": 0.2, "unit": "%"},
      {"measurement": "Vd", "setting": "[14]", "value": 0.123, "unit": "L/kg"},
      {"measurement": "t1/2", "setting": "[14]", "value": 2.6, "unit": "h"},
      {"measurement": "CL", "setting": "[15]", "value": 0.6, "unit": "mL/min/kg"},
      {"measurement": "Extrapolated AUC0–inf", "setting": "[15]", "value": 6.5, "unit": "%"},
      {"measurement": "Vd", "setting": "[15]", "value": 0.08, "unit": "L/kg"},
      {"measurement": "t1/2", "setting": "[15]", "value": 1.5, "unit": "h"},
      {"measurement": "AUC0–inf", "setting": "[16]", "value": "216,281 ng/mL·h"},
      {"measurement": "CL", "setting": "[16]", "value": 0.767, "unit": "mL/min/kg"},
      {"measurement": "Extrapolated AUC0–inf", "setting": "[16]", "value": 5.6, "unit": "%"},
      {"measurement": "Vd", "setting": "[16]", "value": 0.081, "unit": "L/kg"},
      {"measurement": "t1/2", "setting": "[16]", "value": 1.2, "unit": "h"},
      {"measurement": "linear kinetics range", "setting": "female athymic nude mice, IV bolus", "value": "1 to 10", "unit": "mg/kg"},
      {"measurement": "dose proportionality", "setting": "mice, 1, 3, and 10 mg/kg doses", "value": "linear pharmacokinetics"},
      {"measurement": "maximum tolerated doses", "setting": "[3]", "value": "1 to 3", "unit": "mg/kg"},
      {"measurement": "stability of dosing solution following formulation", "setting": "[4]", "value": "at least 11 days"},
      {"measurement": "AUC0–inf", "setting": "[5]", "value": "38,564 ng/mL·h"},
      {"measurement": "CL", "setting": "[5]", "value": 0.867, "unit": "mL/min/kg"},
      {"measurement": "Extrapolated AUC0–inf", "setting": "[5]", "value": 8.07, "unit": "%"},
      {"measurement": "Terminal t1/2", "setting": "[5]", "value": 1.85, "unit": "h"},
      {"measurement": "Vd", "setting": "[5]", "value": 0.138, "unit": "L/kg"},
      {"measurement": "Fraction Unbound (%)", "setting": "[6]; 1 µM", "value": "2.41 ± 1.29", "unit": "%"},
      {"measurement": "Fraction Unbound (%)", "setting": "[6]; 3 µM", "value": "3.85 ± 0.08", "unit": "%"},
      {"measurement": "Fraction Unbound (%)", "setting": "[6]; 10 µM", "value": "3.88 ± 0.54", "unit": "%"},
      {"measurement": "Fraction Unbound (%)", "setting": "[7]; 1 µM", "value": "<1", "unit": "%"},
      {"measurement": "Fraction Unbound (%)", "setting": "[7]; 3 µM", "value": "<1", "unit": "%"},
      {"measurement": "Fraction Unbound (%)", "setting": "[7]; 10 µM", "value": "<1", "unit": "%"},
      {"measurement": "unbound fraction", "setting": "[7]; nu/nu mouse plasma, across tested concentrations (1, 3, 10 µM)", "value": "< 1", "unit": "%"},
      {"measurement": "Fraction Unbound (%)", "setting": "human plasma; 1 µM", "value": "<1", "unit": "%"},
      {"measurement": "Fraction Unbound (%)", "setting": "human plasma; 3 µM", "value": "<1", "unit": "%"},
      {"measurement": "Fraction Unbound (%)", "setting": "human plasma; 10 µM", "value": "<1", "unit": "%"},
      {"measurement": "unbound fraction", "setting": "human plasma; across tested concentrations", "value": "< 1", "unit": "%"},
      {"measurement": "Fraction Unbound (%)", "setting": "[8]; 1 µM", "value": "1.03 ± 0.27", "unit": "%"},
      {"measurement": "Fraction Unbound (%)", "setting": "[8]; 3 µM", "value": "1.02 ± 0.09", "unit": "%"},
      {"measurement": "Fraction Unbound (%)", "setting": "[8]; 10 µM", "value": "1.14 ± 0.15", "unit": "%"},
      {"measurement": "AUC0–inf", "setting": "[9]", "value": 3486, "unit": "ng·h/mL"},
      {"measurement": "CL", "setting": "[9]", "value": 2.38, "unit": "mL/min/kg"},
      {"measurement": "Extrapolated AUC0–inf", "setting": "[9]", "value": 1.43, "unit": "%"},
      {"measurement": "Terminal t1/2", "setting": "[9]", "value": 1.56, "unit": "h"},
      {"measurement": "Vd", "setting": "[9]", "value": 0.324, "unit": "L/kg"},
      {"measurement": "AUC0–inf", "setting": "[10]; [17]", "value": 569, "unit": "ng·h/mL"},
      {"measurement": "CL", "setting": "[10]; [17]", "value": 2.02, "unit": "mL/min/kg"},
      {"measurement": "Extrapolated AUC0–inf", "setting": "[10]; [17]", "value": 3.2, "unit": "%"},
      {"measurement": "Terminal t1/2", "setting": "[10]; [17]", "value": 1.8, "unit": "h"},
      {"measurement": "Vd", "setting": "[10]; [17]", "value": 0.318, "unit": "L/kg"},
      {"measurement": "change of systemic clearance between microgram- and milligram-level doses", "setting": "[10]; mice, 69 µg/kg vs 2 mg/kg", "value": "approximately 0.4 fold"},
      {"measurement": "AUC0–inf", "setting": "[11]; [18]", "value": 223, "unit": "ng·h/mL"},
      {"measurement": "CL", "setting": "[11]; [18]", "value": 2.1, "unit": "mL/min/kg"},
      {"measurement": "Extrapolated AUC0–inf", "setting": "[11]; [18]", "value": 8.4, "unit": "%"},
      {"measurement": "Terminal t1/2", "setting": "[11]; [18]", "value": 2.4, "unit": "h"},
      {"measurement": "Vd", "setting": "[11]; [18]", "value": 0.428, "unit": "L/kg"},
      {"measurement": "change of systemic clearance between microgram- and milligram-level doses", "setting": "[11]; rats, 28 µg/kg vs 0.5 mg/kg", "value": "remained similar"}
    ]},
    {"compound": "CO[C@@H]([C@@H]1Cc2cc3cc(O[C@H]4CC(O[C@H]5CC(O)[C@H](O)C(C)O5)[C@H](O)C(C)O4)c(C)c(O)c3c(O)c2C(=O)[C@H]1O[C@H]1CC(O[C@H]2CC(O[C@H]3CC(O)[C@H](O)C(C)O3)[C@@H](O)C(C)O2)[C@H](O)C(C)O1)[C@@H](O)C(C)=O", "note": "(some centres unmarked) [EC-8042]", "values": [
      {"measurement": "systemic clearance", "setting": "[1]; same as MTM", "value": "high systemic clearance"}
    ]},
    {"compound": "COC(=O)[C@H](Cc1c[nH]c2ccccc12)NC(=O)[C@H](Cc1ccccc1)NC(=O)CO/N=C(\\[C@@H](O)[C@@H](C)O)[C@@H](OC)[C@@H]1Cc2cc3cc(O[C@H]4C[C@@H](O[C@H]5C[C@@H](O)[C@H](O)[C@@H](C)O5)[C@H](O)[C@@H](C)O4)c(C)c(O)c3c(O)c2C(=O)[C@H]1O[C@H]1C[C@@H](O[C@H]2C[C@@H](O[C@H]3C[C@](C)(O)[C@H](O)[C@@H](C)O3)[C@@H](O)[C@@H](C)O2)[C@H](O)[C@@H](C)O1", "note": "[MTMox32E]", "values": [
      {"measurement": "systemic clearance", "setting": "[1]; in vivo", "value": "low systemic clearance"}
    ]}
  ]
}
